According to US10053453B2, “Compounds and their use as BACE inhibitors” (AstraZeneca AB, priority 2014, dated 2018):
pIC50: −log10 of the molar value. Like-named read-outs stand apart in the source and are kept apart here.

Legend:
Human BACE1 = molecular target: T1, Human BACE1 (Homo sapiens, UniProt P56817); assay: Diluted TR-FRET assay; assay type: biochemical; conditions: 50 times less enzyme, 6.5 h reaction time at r.t.; read-out: IC50 BACE1 (dil. TR-FRET)
T1 construct: the soluble part of the human β-Secretase1 (AA1-AA460) was cloned using the BACE1(1-460)-(AVT)-Fc-pGEN-IRES-neo mammalian expression vector; AVT linker (C); made in house
T1 sequence (P56817 22-460): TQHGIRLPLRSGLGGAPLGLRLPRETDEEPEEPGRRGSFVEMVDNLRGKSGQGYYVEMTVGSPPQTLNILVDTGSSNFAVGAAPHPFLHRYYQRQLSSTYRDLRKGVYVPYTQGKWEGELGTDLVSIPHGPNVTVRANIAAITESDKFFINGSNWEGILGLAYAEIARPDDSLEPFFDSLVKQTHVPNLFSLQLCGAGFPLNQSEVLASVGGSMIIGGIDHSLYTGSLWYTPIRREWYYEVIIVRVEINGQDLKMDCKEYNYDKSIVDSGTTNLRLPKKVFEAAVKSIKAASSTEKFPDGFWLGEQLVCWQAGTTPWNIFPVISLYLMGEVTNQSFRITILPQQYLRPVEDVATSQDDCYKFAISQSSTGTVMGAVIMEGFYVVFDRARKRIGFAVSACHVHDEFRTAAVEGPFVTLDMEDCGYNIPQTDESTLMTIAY
How it was run: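 Human BACE1 (residues 1-460) was fused to an IgG1 Fc affinity tag and stably expressed in HEK 293 cells. Using a Multidrop Combi, 7 μL enzyme was added to 0.8 μL compound in dimethylsulphoxide and incubated 10 minutes. Reactions were stopped with 5.5 μL NaOAC Stop solution (pH 9), and TR-FRET fluorescence was read on a Pherastar HTRF module.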

Human BACE2 = molecular target: T2, Human BACE2 (Homo sapiens, UniProt Q9Y5Z0); assay: TR-FRET assay; assay type: biochemical; conditions: substrate 100 nM, pH4.5
T2 construct: the soluble part of the human β-Secretase2 (AA1-AA473) was cloned using BACE2(1-473)-(AVT)-Fc-pDEST12.2 mammalian expression vector; AVT linker (C); made in house
T2 sequence (Q9Y5Z0 21-473): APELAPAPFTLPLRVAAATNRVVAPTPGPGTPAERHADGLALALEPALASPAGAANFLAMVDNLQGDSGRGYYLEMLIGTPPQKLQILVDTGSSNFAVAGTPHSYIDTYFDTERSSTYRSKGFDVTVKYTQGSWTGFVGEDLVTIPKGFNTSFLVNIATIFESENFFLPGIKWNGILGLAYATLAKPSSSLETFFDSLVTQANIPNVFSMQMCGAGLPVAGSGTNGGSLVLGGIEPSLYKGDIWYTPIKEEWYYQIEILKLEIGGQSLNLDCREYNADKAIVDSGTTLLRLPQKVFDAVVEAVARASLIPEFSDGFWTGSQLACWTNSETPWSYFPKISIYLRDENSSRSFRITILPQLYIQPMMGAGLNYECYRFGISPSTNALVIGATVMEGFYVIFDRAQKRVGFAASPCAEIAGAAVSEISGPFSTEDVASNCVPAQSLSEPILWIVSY

SH-SY5Y cells = assay: sAPPβ release assay; conditions: for pIC50: read-out: IC50 Cell (sAPPβ release), SH-SY5Y cells, compounds incubated 16-17 h; for IC50: Homo sapiens, SH-SY5Y, read-out: IC50 Cell (sAPPβ release, nM), SH-SY5Y cells, compounds incubated 16-17 h

## CC1(C2CCOCC2)Cc2ccc(-c3cncnc3)cc2C12COC(N)=N2 (stereo not drawn) [Compound 102, 2-methyl-6-(pyrimidin-5-yl)-2-(tetrahydro-2H-pyran-4-yl)-2,3-dihydro-5′H-spiro[indene-1,4′-oxazol]-2′-amine]
Human BACE1
  pIC50: 5.66
Human BACE2; enzyme […]
  pIC50: < 5.30
SH-SY5Y cells
  pIC50: 7.48

## [2H]C([2H])([2H])O[C@H]1CC[C@@]2(Cc3ccc(-c4cc(Cl)cnc4F)cc3[C@]23N=C(N)OC3([2H])[2H])C[C@@H]1C [Compound 103, {(1S,1′R,3S,4S)-6′-(2-fluoro-5-chloropyridin-3-yl)-4-(methoxy-d3)-3-methyl-3′H,5″H-dispiro[cyclohexane-1,2′-indene-1′,4″-oxazol]-5″,5″-d2-2″-amine}]
Human BACE1
  pIC50: 7.66
Human BACE2; enzyme 2.7 μg/mL
  pIC50: 7.26
SH-SY5Y cells
  IC50: 0.6 nM

## [2H]C([2H])([2H])O[C@H]1CC[C@@]2(Cc3ccc(-c4cnccc4F)cc3[C@]23N=C(N)OC3([2H])[2H])C[C@@H]1C [Compound 104, {(1S,1′R,3S,4S)-6′-(4-fluoropyridin-3-yl)-4-(methoxy-d3)-3-methyl-3′H,5″H-dispiro[cyclohexane-1,2′-indene-1′,4″-oxazol]-5″,5″-d2-2″-amine}]
Human BACE1
  pIC50: 7.11
Human BACE2; enzyme 2.7 μg/mL
  pIC50: 5.99
SH-SY5Y cells
  IC50: 0.7 nM

## [2H]C([2H])([2H])O[C@H]1CC[C@@]2(Cc3ccc(-c4cncc(C#N)c4)cc3[C@]23N=C(N)OC3([2H])[2H])C[C@@H]1C [Compound 105, {(1S,1′R,3S,4S)-6′-(5-cyanopyridin-3-yl)-4-(methoxy-d3)-3-methyl-3′H,5″H-dispiro[cyclohexane-1,2′-indene-1′,4″-oxazol]-5″,5″-d2-2″-amine}]
Human BACE1
  pIC50: 7.89
Human BACE2; enzyme 2.7 μg/mL
  pIC50: 7.15
SH-SY5Y cells
  IC50: 0.4 nM

## [2H]C([2H])([2H])O[C@@H]1CC[C@]2(Cc3ccc(-c4cc(Cl)cnc4F)cc3[C@]23N=C(N)OC3([2H])[2H])C[C@H]1C [Compound 106, {(1R,1′R,3R,4R)-4-(methoxy-d3)-3-methyl-6′-(2-fluoro-5-chloropyridin-3-yl)-3′H,5″H-dispiro[cyclohexane-1,2′-indene-1′,4″-oxazol]-5″,5″-d2-2″-amine}]
Human BACE1
  pIC50: 7.31
Human BACE2; enzyme 2.7 μg/mL
  pIC50: 7.10
SH-SY5Y cells
  IC50: 2.8 nM

## [2H]C([2H])([2H])O[C@@H]1CC[C@]2(Cc3ccc(-c4cnccc4F)cc3[C@]23N=C(N)OC3([2H])[2H])C[C@H]1C [Compound 107, {(1R,1′R,3R,4R)-4-(methoxy-d3)-3-methyl-6′-(4-fluoropyridin-3-yl)-3′H,5″H-dispiro[cyclohexane-1,2′-indene-1′,4″-oxazol]-5″,5″-d2-2″-amine}]
Human BACE1
  pIC50: 6.53
Human BACE2; enzyme 2.7 μg/mL
  pIC50: 5.68
SH-SY5Y cells
  IC50: 1.8 nM

## [2H]C([2H])([2H])O[C@@H]1CC[C@]2(Cc3ccc(-c4cncc(C#N)c4)cc3[C@]23N=C(N)OC3([2H])[2H])C[C@H]1C [Compound 108, {(1R,1′R,3R,4R)-4-(methoxy-d3)-3-methyl-6′-(5-cyanopyridin-3-yl)-3′H,5″H-dispiro[cyclohexane-1,2′-indene-1′,4″-oxazol]-5″,5″-d2-2″-amine}]
Human BACE1
  pIC50: 7.25
Human BACE2; enzyme 2.7 μg/mL
  pIC50: 7.24
SH-SY5Y cells
  IC50: 1.5 nM

## [2H]C1([2H])OC(N)=NC12c1cc(-c3cc(F)cc(F)c3)ccc1C[C@@]21CC[C@H](OC)[C@@H](C)C1 (stereo partly drawn) [Compound 110, {(1S,3S,4S)-4-methoxy-3-methyl-6′-(3,5-difluorophenyl)-3′H,5″H-dispiro[cyclohexane-1,2′-indene-1′,4″-oxazol]-5″,5″-d2-2″-amine}]
Human BACE1
  pIC50: 7.17
Human BACE2; enzyme 2.7 μg/mL
  pIC50: 7.02
SH-SY5Y cells
  IC50: 10 nM

## [2H]C1([2H])OC(N)=NC12c1cc(-c3ccnc(O)c3)ccc1C[C@@]21CC[C@H](OC)[C@@H](C)C1 (stereo partly drawn) [Compound 111]
Human BACE1
  pIC50: 5.66
Human BACE2; enzyme 2.7 μg/mL
  pIC50: < 5.30
SH-SY5Y cells
  IC50: 89 nM

## [2H]C1([2H])OC(N)=N[C@]12c1cc(-c3ccncc3)ccc1C[C@@]21CC[C@H](OC)[C@@H](C)C1 [Compound 112, {(1S,1′R,3S,4S)-4-methoxy-3-methyl-6′-(pyridin-4-yl)-3′H,5″H-dispiro[cyclohexane-1,2′-indene-1′,4″-oxazol]-5″,5″-d2-2″-amine}]
Human BACE1
  pIC50: 5.69
Human BACE2; enzyme 2.7 μg/mL
  pIC50: 5.32
SH-SY5Y cells
  IC50: 14 nM

## [2H]C1([2H])OC(N)=N[C@]12c1cc(-c3cncc(C#N)c3)ccc1C[C@@]21CC[C@H](OC)[C@@H](C)C1 [Compound 113, {(1S,1′R,3S,4S)-4-methoxy-3-methyl-6′-(5-cyanopyridin-3-yl)-3′H,5″H-dispiro[cyclohexane-1,2′-indene-1′,4″-oxazol]-5″,5″-d2-2″-amine}]
Human BACE1
  pIC50: 7.77
Human BACE2; enzyme 2.7 μg/mL
  pIC50: 7.19
SH-SY5Y cells
  IC50: 0.2 nM

## [2H]C1([2H])OC(N)=N[C@]12c1cc(-c3ccccn3)ccc1C[C@@]21CC[C@H](OC)[C@@H](C)C1 [Compound 114, {(1S,1′R,3S,4S)-4-methoxy-3-methyl-6′-(pyridin-2-yl)-3′H,5″H-dispiro[cyclohexane-1,2′-indene-1′,4″-oxazol]-5″,5″-d2-2″-amine}]
Human BACE1
  pIC50: 6.11
Human BACE2; enzyme 2.7 μg/mL
  pIC50: 5.74
SH-SY5Y cells
  IC50: 8 nM

## [2H]C1([2H])OC(N)=N[C@]12c1cc(-c3ccnnc3)ccc1C[C@@]21CC[C@H](OC)[C@@H](C)C1 [Compound 115, {(1S,1′R,3S,4S)-4-methoxy-3-methyl-6′-(pyridazin-4-yl)-3′H,5″H-dispiro[cyclohexane-1,2′-indene-1′,4″-oxazol]-5″,5″-d2-2″-amine}]
Human BACE1
  pIC50: 6.46
Human BACE2; enzyme 2.7 μg/mL
  pIC50: 5.65
SH-SY5Y cells
  IC50: 13 nM

## [2H]C1([2H])OC(N)=N[C@]12c1cc(-c3cncnc3C)ccc1C[C@]21CC[C@@H](OC)CC1 [Compound 116, {(1r,1′R,4R)-4-methoxy-6′-(4-methylpyrimidin-5-yl)-3′H,5″H-dispiro[cyclohexane-1,2′-indene-1′,4″-oxazol]-5″,5″-d2-2″-amine}]
Human BACE1
  pIC50: 5.95
Human BACE2; enzyme 2.7 μg/mL
  pIC50: < 5.30
SH-SY5Y cells
  IC50: 26 nM

## [2H]C1([2H])OC(N)=N[C@]12c1cc(C#N)ccc1C[C@]21CC[C@@H](OC)[C@H](C)C1 [Compound 119, {(1R,1′R,3R,4R)-6′-cyano-4-methoxy-3-methyl-3′H,5″H-dispiro[cyclohexane-1,2′-indene-1′,4″-oxazol]-5″,5″-d2-2″-amine}]
Human BACE1
  pIC50: 6.53
Human BACE2; enzyme 2.7 μg/mL
  pIC50: 5.96
SH-SY5Y cells
  IC50: 13 nM

## [2H]C1([2H])OC(N)=N[C@]12c1cc(C#N)ccc1C[C@@]21CC[C@H](OC)[C@@H](C)C1 [Compound 120, {(1S,1′R,3S,4S)-6′-cyano-4-methoxy-3-methyl-3′H,5″H-dispiro[cyclohexane-1,2′-indene-1′,4″-oxazol]-5″,5″-d2-2″-amine}]
Human BACE1
  pIC50: 6.72
Human BACE2; enzyme 2.7 μg/mL
  pIC50: 5.79
SH-SY5Y cells
  IC50: 7 nM

## (1r,3R,4r,5S)-4-methoxy-3,5-dimethyl-6′-(5-(trifluoromethyl)pyridin-3-yl)-3′H,5″H-dispiro[cyclohexane-1,2′-indene-1′,4″-oxazol]-2″-amine [Compound 30]
Human BACE1
  pIC50: 6.77
Human BACE2; enzyme […]
  pIC50: 6.46
SH-SY5Y cells
  pIC50: 7.95

## (1′R,4′S)-4′-methoxy-6″-(pyridin-3-yl)-3″H,5′″H-trispiro[cyclopropane-1,3′-cyclohexane-1′,2″-indene-1″,4′″-oxazol]-5′″,5′″-d2-2′″-amine and (1′S,4′R)-4′-methoxy-6″-(pyridin-3-yl)-3″H,5′″H-trispiro[cyclopropane-1,3′-cyclohexane-1′,2″-indene-1″,4′″-oxazol]-5′″,5′″-d2-2′″-amine [Compound 87]
Human BACE1
  pIC50: 6.58
Human BACE2; enzyme […]
  pIC50: 5.46
SH-SY5Y cells
  pIC50: 8.33

## (1′R,4′S)-4′-methoxy-6″-(pyrimidin-5-yl)-3″H,5′″H-trispiro[cyclopropane-1,3′-cyclohexane-1′,2″-indene-1″,4′″-oxazol]-5′″,5′″-d2-2′″-amine and (1′S,4′R)-4′-methoxy-6″-(pyrimidin-5-yl)-3″H,5′″H-trispiro[cyclopropane-1,3′-cyclohexane-1′,2″-indene-1″,4′″-oxazol]-5′″,5′″-d2-2′″-amine [Compound 86]
Human BACE1
  pIC50: 6.84
Human BACE2; enzyme […]
  pIC50: 5.32
SH-SY5Y cells
  pIC50: 8.23
